One block for each compound: values may come before it.
Legend:
[1] = test system: human lung cancer cell line A549; experiment: Label-free biosensor DMR assay of A549 cells exposed to 2 mM H2O2 with or without thrombin pretreatment; type: cell-based
Experimental: The kinetic responses were normalized at the time point 2 min before the addition of H2O2.
(§1) The cell responses were recorded continuously.
The large amplitude of the second N-DMR signal indicates the significant loss of local biomass density within the detection zone of the biosensor, indicative of cell apoptosis which leads to the release of cellular matters from the bottom portion of cells cultured on the biosensor surface. […] The onset time for the second N-DMR event is delayed by at least 15 min.

primary liver cells [2] = experiment: Label-free biosensor DMR assay, direct exposure of primary liver cells in biosensor sandwich culture; type: cell-based, Human; details: for DMR signal upon exposure to compound alone: all doses examined
Experimental: Collagen coating of the biosensor microplates was achieved by dispensing 10 μl collagen I (10 μg/ml) into each well, and followed by slow drying over night under controlled vacuum condition. This coating process takes advantage of slow self-assembly of collagen I, and results in an un-even coating consisting of a series of clusters of collagen I, thus providing microscale or nanoscale topology of ECM materials to liver cells to form Epic® 384well biosensor microplate collagen coated.
The RWG biosensor exploits its evanescent wave to measure ligand-induced DMR signals in cells. The evanescent wave extends into the cells and exponentially decays over distance, leading to a characteristic sensing volume of ˜150 nm, implying that any optical response mediated through the receptor activation only represents an average over the portion of the cell that the evanescent wave is sampling. The aggregation of many cellular events downstream the receptor activation determines the kinetics and amplitudes of a ligand-induced DMR.
as §1

primary liver cells [3] = experiment: Label-free biosensor DMR assay, 1 mM H2O2 as amplifying marker after compound pretreatment of primary liver cells; details: then 1 mM H2O2

DMR response (primary liver cells [2]; 5 mM H2O2): significant negative DMR (N-DMR) signal
onset time for the N-DMR signal (primary liver cells [2]; after treatment with 5 mM H2O2): around 30 min
Compound: OO [H2O2, hydrogen peroxide]
DMR signal of A549 cells ([1]; 2 mM H2O2, no thrombin pretreatment): complicated DMR signal, consisting of four phases
DMR response (change in local biomass) (primary liver cells [2]; 1 mM H2O2): did not trigger any significant change in local biomass

Compound: C[S+]([O-])c1ccc(-c2nc(-c3ccncc3)c(-c3ccc(F)cc3)[nH]2)cc1 (centres unmarked) [SB203580]
H2O2-induced DMR signal after pretreatment (primary liver cells [3]; high doses of SB203580, pretreatment ~1-4 hrs): responded to 1 mM H2O2 exposure with a N-DMR
DMR signal upon exposure to compound alone (primary liver cells [2]; 625 nanomolar up to 10000 nanomolar): did not result in any significant DMR signal

H2O2-induced DMR signal after pretreatment (primary liver cells [3]; rifampin pretreatment ~1-4 hrs): rifampin dose dependent N-DMR
Compound: CO[C@H]1/C=C/O[C@@]2(C)Oc3c(C)c(O)c4c(O)c(c(/C=N/N5CCN(C)CC5)c(O)c4c3C2=O)NC(=O)/C(C)=C\C=C\[C@H](C)[C@H](O)[C@@H](C)[C@@H](O)[C@@H](C)[C@H](OC(C)=O)[C@@H]1C [rifampin, Rifampin]
DMR signal upon exposure to compound alone (primary liver cells [2]; rifampin 625 nM up to 40000 nM): did not result in any significant loss in local biomass density or cause any significant DMR signal

Compound: thrombin
delay of onset time for the second N-DMR event ([1]; thrombin pretreatment 1 to 16 unit/ml, then 2 mM H2O2): at least 15 min
potency to alter the H2O2 response, based on amplitudes of the rapid P-DMR event ([1]; thrombin pretreatment 1 hr, then 2 mM H2O2, said to correspond to EC50 for endogenous PAR1 activation): ~4 unit/ml
effect on H2O2-induced A549 apoptosis ([1]; thrombin pretreatment, then 2 mM H2O2): protective of H2O2-induced A549 apoptosis

From US8658353B2, “Liver cell toxicity assay” (Corning Incorporated, priority 2008, dated 2014)
